US4443436A, “C-20-Modified macrolide derivatives of the macrolide antibiotics tylosin, desmycosin, macrocin, and lactenocin” (Eli Lilly and Company, priority 1982, dated 1984)
Values after ≈ are worked out from the molar mass of the structure shown. Values joined by “and” are separate entries in the source; they are usually repeats but may differ in a detail not shown here. Equal values may be shown once. Read-outs that look alike come from different tables or passages of the source.

Legend:
[1] = tested on: Staphylococcus aureus S13E; assay: MIC, standard agar-dilution assay, Staphylococcus aureus S13E; assay type: cell-based
Streptococcus bovis 80 = assay: MIC, broth-dilution microtiter test, Streptococcus bovis 80; assay type: cell-based
From the text: (§1) The MIC's in Table X were obtained using conventional broth-dilution microtiter tests.

[2] = tested on: Staphylococcus aureus V41; assay: MIC, standard agar-dilution assay, Staphylococcus aureus V41; assay type: cell-based; details: Staphylococcus aureus V41, penicillin-resistant strain, agar dilution
[3] = tested on: Pasteurella multocida 60A; assay: MIC, broth-dilution microtiter test, Pasteurella multocida 60A; assay type: cell-based; details: Pasteurella multocida 60A, avian isolate, broth-dilution microtiter
From the text: as §1

[4] = tested on: Staphylococcus aureus X400; assay: MIC, standard agar-dilution assay, Staphylococcus aureus X400; assay type: cell-based; details: Staphylococcus aureus X400, methicillin-resistant strain, agar dilution
[5] = tested on: Streptococcus pyogenes C203; assay: MIC, standard agar-dilution assay, Streptococcus pyogenes C203; assay type: cell-based
[6] = tested on: Pasteurella hemolytica 22C; assay: MIC, broth-dilution microtiter test, Pasteurella hemolytica 22C; assay type: cell-based; details: Pasteurella hemolytica 22C, broth-dilution microtiter
From the text: as §1

Staphylococcus aureus = assay: MIC, broth-dilution microtiter test, Staphylococcus aureus; assay type: cell-based; details: broth-dilution microtiter
From the text: as §1

[7] = tested on: Staphylococcus epidermidis EPI2; assay: MIC, standard agar-dilution assay, Staphylococcus epidermidis EPI2; assay type: cell-based; details: Staphylococcus epidermidis EPI2; agar dilution
[8] = tested on: Streptococcus pyogenes C203; assay: In vivo protection of mice experimentally infected with S. pyogenes C203; details: mice, doses given 1 and 4 hours post-infection; for ED50: Streptococcus pyogenes
Method: The C-20 modified derivatives of this invention have shown in vivo antimicrobial activity against experimentally-induced infections in laboratory animals. When two doses of test compound were administered to mice experimentally infected with S. pyogenes C203, the activity observed was measured as an ED50 value [effective dose in mg/kg to protect 50% of the test animals: see Warren Wick, et al., J. Bacteriol. 81, 233-235 (1961)].

[9] = tested on: Haemophilus influenzae R252; assay: MIC, standard agar-dilution assay, Haemophilus influenzae R252; assay type: cell-based; details: Haemophilus influenzae R252, ampicillin-resistant strain
Mycoplasma synoviae = assay: MIC, broth-dilution microtiter test, Mycoplasma synoviae; assay type: cell-based; details: Mycoplasma synoviae; broth-dilution microtiter
From the text: as §1

Mycoplasma gallisepticum = assay: MIC, broth-dilution microtiter test, Mycoplasma gallisepticum; assay type: cell-based; details: Mycoplasma gallisepticum, broth-dilution microtiter
From the text: as §1

Pasteurella multocida [10] = assay: Subcutaneous treatment of Pasteurella multocida-infected chicks; assay type: in vivo, one-day-old chicks
Method: (§2) Many of the C-20 modified derivatives of this invention have also shown in vivo antibacterial activity against infections induced by gram-negative bacteria. Tables XII and XIII summarize the results of tests in which illustrative compounds were evaluated against Pasteurella infection in one-day-old chicks. The compounds were administered parenterally or orally after challenge of the chicks with Pasteurella multocida (0.1 ml of a 10^-4 dilution of a twenty-hour tryptose broth culture of an avian P. multocida given subcutaneously). In these tests, unless indicated otherwise, all non-medicated infected chicks died within 24 hours of Pasteurella challenge. In the tests summarized in Table XII the compounds were administered by subcutaneous injection at a dosage of 30 mg/kg, 1 and 4 hours post-challenge of the chicks with P. multocida. In the test summarized in Table XIII the compounds were administered by gavage at 1 and 5 hours post-challenge of the chicks with P. multocida.

[11] = tested on: Streptococcus Group D X66; assay: MIC, standard agar-dilution assay, Streptococcus Group D X66; assay type: cell-based; details: Streptococcus Group D X66, agar dilution
[12] = tested on: Staphylococcus epidermidis EPI1; assay: MIC, standard agar-dilution assay, Staphylococcus epidermidis EPI1; assay type: cell-based; details: Staphylococcus epidermidis EPI1, agar dilution
[13] = tested on: Staphylococcus aureus X1.1; assay: MIC, standard agar-dilution assay, Staphylococcus aureus X1.1; assay type: cell-based
[14] = tested on: Streptococcus pneumoniae Park I; assay: microbe, parasite or virus in culture; assay type: cell-based; details: Streptococcus pneumoniae Park I, agar dilution
[15] = tested on: Haemophilus influenzae Holt; assay: MIC, standard agar-dilution assay, Haemophilus influenzae Holt; assay type: cell-based
Streptococcus Group 9960 = assay: MIC, standard agar-dilution assay, Streptococcus Group 9960; assay type: cell-based; details: Streptococcus Group 9960, agar dilution
Mycoplasma hyorhinis = assay: MIC, broth-dilution microtiter test, Mycoplasma hyorhinis; assay type: cell-based
From the text: as §1

[16] = tested on: Pasteurella multocida 17E; assay: MIC, broth-dilution microtiter test, Pasteurella multocida 17E; assay type: cell-based; details: Pasteurella multocida 17E, bovine isolate, broth-dilution microtiter
From the text: as §1

Mycoplasma hyopneumoniae = assay: MIC, broth-dilution microtiter test, Mycoplasma hyopneumoniae; assay type: cell-based; details: Mycoplasma hyopneumoniae, broth-dilution microtiter
From the text: as §1

Pasteurella multocida [17] = assay: Oral (gavage) treatment of Pasteurella multocida-infected chicks; assay type: in vivo, one-day-old chicks
Method: as §2

[18] = Staphylococcus aureus S13E, agar dilution
[19] = Streptococcus bovis 80, broth-dilution microtiter
[20] = Streptococcus pyogenes C203, agar dilution
[21] = 30 mg/kg × 2, 1 and 4 hours post-challenge
[22] = Staphylococcus aureus X1.1, agar dilution
[23] = Haemophilus influenzae Holt, ampicillin-sensitive strain, agar dilution
[24] = Mycoplasma hyorhinis, broth-dilution microtiter

## CCOC(=O)NN(CCC1CC(C)C(=O)C=CC(C)=CC(COC2OC(C)C(O)C(OC)C2OC)C(CC)OC(=O)CC(O)C(C)C1OC1OC(C)C(O)C(N(C)C)C1O)C(=O)OCC (stereo not shown) [Compound 45, 20-DH-DO-20-[N-(Ethoxycarbonyl)-N-(ethoxycarbonylamino)]aminodesmycosin]
[1]; [18]
  MIC: 0.5 µg/mL (≈ 0.536 µM)
Streptococcus bovis 80; [19]
  MIC: 12.5 µg/mL (≈ 13.4 µM)
[2]
  MIC: 0.5 µg/mL (≈ 0.536 µM)
[3]
  MIC: 25 µg/mL (≈ 26.8 µM)
[4]
  MIC: 1 µg/mL (≈ 1.07 µM)
[5]; [20]
  MIC: 2 µg/mL (≈ 2.15 µM)
[6]
  MIC: 50 µg/mL (≈ 53.6 µM)
Staphylococcus aureus
  MIC: 1.56 µg/mL (≈ 1.67 µM)
[7]
  MIC: 0.25 µg/mL (≈ 0.268 µM)
[8]; oral
  ED50, Oral: > 50 mg/kg × 2
[8]; subcutaneous
  ED50, Subcutaneous: 2.1 mg/kg × 2
[9]; agar dilution
  MIC: 32 µg/mL (≈ 34.3 µM)
Mycoplasma synoviae
  MIC: 6.25 µg/mL (≈ 6.71 µM)
Mycoplasma gallisepticum
  MIC: 0.39 µg/mL (≈ 0.418 µM)
Pasteurella multocida [10]; [21]
  Number of Deaths/Number Treated: 9/10
[11]
  MIC: 16 µg/mL (≈ 17.2 µM)
[12]
  MIC: 0.5 µg/mL (≈ 0.536 µM)
[13]; [22]
  MIC: 0.5 µg/mL (≈ 0.536 µM)
[14]
  MIC: 0.5 µg/mL (≈ 0.536 µM)
[15]; [23]
  MIC: 32 µg/mL (≈ 34.3 µM)
Streptococcus Group 9960
  MIC: 8 µg/mL (≈ 8.58 µM)
Mycoplasma hyorhinis; [24]
  MIC: -- (Not active at 50 mcg/ml, the highest level tested)
[16]
  MIC: 25 µg/mL (≈ 26.8 µM)
Mycoplasma hyopneumoniae
  MIC: 6.25 µg/mL (≈ 6.71 µM)

## CCC1OC(=O)CC(O)C(C)C(OC2OC(C)C(O)C(N(C)C)C2O)C(CCN2C(=O)c3ccccc3C2=O)CC(C)C(=O)C=CC(C)=CC1COC1OC(C)C(O)C(OC)C1OC (stereo not shown) [Compound 43, 20-DH-DO-20-N-Phthalimidodesmycosin]
[1]; [18]
  MIC: 0.25 µg/mL (≈ 0.277 µM)
Streptococcus bovis 80; [19]
  MIC: 6.25 µg/mL (≈ 6.92 µM)
[2]
  MIC: 0.12 µg/mL (≈ 0.133 µM)
[3]
  MIC: 12.5 µg/mL (≈ 13.8 µM)
[4]
  MIC: 0.5 µg/mL (≈ 0.554 µM)
[5]; [20]
  MIC: 0.25 µg/mL (≈ 0.277 µM)
[6]
  MIC: 25 µg/mL (≈ 27.7 µM)
Staphylococcus aureus
  MIC: 0.78 µg/mL (≈ 0.864 µM)
[7]
  MIC: 0.25 µg/mL (≈ 0.277 µM)
[8]; oral
  ED50, Oral: 16 mg/kg × 2
[8]; subcutaneous
  ED50, Subcutaneous: 1.6 mg/kg × 2
[9]; agar dilution
  MIC: 32 µg/mL (≈ 35.4 µM)
Mycoplasma synoviae
  MIC: 0.78 µg/mL (≈ 0.864 µM)
Mycoplasma gallisepticum
  MIC: 0.78 µg/mL (≈ 0.864 µM)
Pasteurella multocida [10]; [21]
  Number of Deaths/Number Treated: 10/10
[12]
  MIC: 0.12 µg/mL (≈ 0.133 µM)
[13]; [22]
  MIC: 0.12 µg/mL (≈ 0.133 µM)
[14]
  MIC: 2 µg/mL (≈ 2.21 µM)
[15]; [23]
  MIC: 32 µg/mL (≈ 35.4 µM)
Streptococcus Group 9960
  MIC: 4 µg/mL (≈ 4.43 µM)
Mycoplasma hyorhinis; [24]
  MIC: 50 µg/mL (≈ 55.4 µM)
[16]
  MIC: 25 µg/mL (≈ 27.7 µM)
Mycoplasma hyopneumoniae
  MIC: 12.5 µg/mL (≈ 13.8 µM)

## CCC1OC(=O)CC(O)C(C)C(OC2OC(C)C(O)C(N(C)C)C2O)C(CCCl)CC(C)C(=O)C=CC(C)=CC1COC1OC(C)C(O)C(OC)C1OC (stereo not shown) [Compound 21, 20-DH-DO-20-Chlorodesmycosin]
Pasteurella multocida [17]; 1.0 g/gal equivalent
  Number of Deaths/Number tested: 3/9
Pasteurella multocida [17]; 2.0 g/gal equivalent
  Number of Deaths/Number tested: 0/9 and 0/10
Pasteurella multocida [17]; 2.0 g/gal equivalent, 13/20 infected nonmedicated chicks died in this test
  Number of Deaths/Number tested: 2/10
[1]; Staphylococcus aureus, S13E
  MIC: 0.12 µg/mL (≈ 0.151 µM)
Streptococcus bovis 80; Streptococcus equinus, 80
  MIC: 3.12 µg/mL (≈ 3.94 µM)
[2]; read-out: MIC
  MIC: 0.12 µg/mL (≈ 0.151 µM)
[3]; read-out: MIC
  MIC: 6.25 µg/mL (≈ 7.89 µM)
[4]; read-out: MIC
  MIC: 0.5 µg/mL (≈ 0.631 µM)
[5]; Streptococcus pyogenes, C203
  MIC: 0.25 µg/mL (≈ 0.315 µM)
[6]; read-out: MIC
  MIC: 12.5 µg/mL (≈ 15.8 µM)
Staphylococcus aureus; read-out: MIC
  MIC: 0.78 µg/mL (≈ 0.984 µM)
[8]; C203, sc, subcutaneous, read-out: ED50, Subcutaneous
  ED50: 0.7 mg/kg
[8]; C203, oral, read-out: ED50, Oral
  ED50: 6 mg/kg
[9]; read-out: MIC
  MIC: 16 µg/mL (≈ 20.2 µM)
Mycoplasma gallisepticum; Mycoplasmoides gallisepticum, read-out: MIC
  MIC: 0.39 µg/mL (≈ 0.492 µM)
Pasteurella multocida [10]; [21]
  Number of Deaths/Number Treated: 9/10
Pasteurella multocida [10]; 30 mg/kg × 2, 8/10 infected nonmedicated chicks died in this test
  Number of Deaths/Number Treated: 7/10
[11]; read-out: MIC
  MIC: 8 µg/mL (≈ 10.1 µM)
[12]; read-out: MIC
  MIC: 0.12 µg/mL (≈ 0.151 µM)
[13]; Staphylococcus aureus, X1.1
  MIC: 0.25 µg/mL (≈ 0.315 µM)
[14]; read-out: MIC
  MIC: 1 µg/mL (≈ 1.26 µM)
[15]; Haemophilus influenzae
  MIC: 16 µg/mL (≈ 20.2 µM)
Streptococcus Group 9960; GROUP9960, read-out: MIC
  MIC: 8 µg/mL (≈ 10.1 µM)
Mycoplasma hyorhinis; Mycoplasma
  MIC: 50 µg/mL (≈ 63.1 µM)
[16]; read-out: MIC
  MIC: 12.5 µg/mL (≈ 15.8 µM)
Mycoplasma hyopneumoniae; Mesomycoplasma hyopneumoniae, read-out: MIC
  MIC: 12.5 µg/mL (≈ 15.8 µM)
